Target: T1, Aβ1-42 (Homo sapiens, UniProt P05067)
T1 construct: Scyllo-inositol and amyloid monomers (Aβ1-42) were compartmentalised in droplets
Assay: Inhibition of Aβ1-42 aggregation in microdroplet gel beads, flow cytometric analysis
Format: biochemical
Details: HF488Aβ1-42 with scyllo-inositol in droplets, amyloid:inhibitor ratios 1:1 or 1:20, versus control without inhibitor; flow cytometry (FIG. 12)
Method: FIG. 12: Inhibition of aggregation by scyllo-inositol. Scyllo-inositol and amyloid monomers (Aβ1-42) were compartmentalised in droplets and incubated at ratios of amyloid:inhibitor of 1:1 (central bar at each time point) or 1:20 (right-hand bar at each time point), respectively. The left-hand bar at each time point represents a control with no scyllo-inositol.
A microfluidic droplet generator with a flow focusing geometry was used to generate water-in-oil droplets. The contents of the droplets were determined by the content of the supply stream: peptide buffer solution was mixed with agarose gel solution and trapped by HFE7500 oil containing a surfactant, e.g. 0.5% (w/w) fluorous tri-block copolymers. […]
Since the processed gel beads were stored in aqueous buffer solution, they could be tested via flow cytometry or FACS, a technique requiring aqueous carrier fluid, in order to assess the aggregation process and compare different intensity of aggregates inside agarose beads. Incubated and washed agarose beads with Hilyte488-labelled Aβ1-40 aggregates were sent to FACS and the beads with fluorescent aggregates were counted. […] The percentage of beads containing aggregates was calculated using the program Summit. […]

T1 sequence (P05067 672-713 limits assumed): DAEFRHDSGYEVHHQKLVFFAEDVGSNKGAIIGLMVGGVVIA

O[C@H]1[C@H](O)[C@@H](O)[C@H](O)[C@@H](O)[C@@H]1O [scyllo-inositol]
inhibition of aggregation of Aβ1-42 monomers in gel beads: inhibition of aggregation by scyllo-inositol was detected
